Results: patent US20240050510A1, “COMBINATION THERAPY COMPRISING UNCARIA FOR TREATING ANXIETY AND DEPRESSION” (The Open University, priority 2020, published 2024)

Legend:
[1] = literature; cited from earlier work
ICR outbred mice [2] = assay: Novel Open Field (NOF), anxiety-like behavior; assay type: in vivo; settings: 3 weeks of treatment after 30 days UCMS (FIG. 4B); in comparison to the Saline and UR groups
Method: Animals. ICR outbred mice (Envigo RMS (Harlen), Israel) were kept in the vivarium of the Psychobiological laboratory of the Open University, […] Medical Center, Jerusalem. Mice were kept on a reversed 12-hour light/dark cycle and given ad libitum access to food and water. All experiments were performed during the dark phase under red light (7:00-19:00). All experiments were approved by the Committee for animal care and use according to the NIH guidelines. Drugs administration. […] Unpredictable chronic mild stress (UCMS). Mice were exposed to UCMS for 4 weeks at the age of 4 weeks as previously described (Malkoff, A., et al. (2008) J Neural Transm 115, 1563-1571). Novel Open Field (NOF). The novel open field consists of an empty square arena (40×40×40 cm) divided into 36 identical squares and surrounded by Perspex opaque walls. […] Mice were placed in the center of the arena and their behavior was video recorded for a total of 5 min, and later coded by an observer blind to the mice's treatment. Anxiety-like behavior was measured by the time spent in the peripheral area, i.e., the peripheral ring of the arena (6.67 cm from each wall, Walsh & Cummins, (1976) Psychological Bulletin, 83 (3), 482-504). […] Effects were evaluated in independent mice groups following 1 and 3 weeks of treatment. […]

ICR outbred mice [3] = assay: Open field test (OFT), anxiety-like behavior; assay type: in vivo; settings: 1-week treatment (FIG. 1C)
Method: (§1) Animals. ICR outbred mice (Envigo RMS (Harlen), Israel) were kept in the vivarium of the Psychobiological laboratory of the Open University, […] Medical Center, Jerusalem. Mice were kept on a reversed 12-hour light/dark cycle and given ad libitum access to food and water. All experiments were performed during the dark phase under red light (7:00-19:00). All experiments were approved by the Committee for animal care and use according to the NIH guidelines. Drugs administration. […] Unpredictable chronic mild stress (UCMS). Mice were exposed to UCMS for 4 weeks at the age of 4 weeks as previously described (Malkoff, A., et al. (2008) J Neural Transm 115, 1563-1571). Elevated plus-maze (EPM) and Open field test (OFT). Anxiety-like behavior was assessed using EPM and OFT as previously described ([…]. (2009) Brain Res 1256, 138-148). Locomotion was assessed using the OFT and expressed as the percentage of time that the mouse moved in a velocity above 0.1 pixel/sec.

BDNF = assay: Hippocampal BDNF levels by sandwich ELISA; assay type: in vivo, mice; settings: 3-week treatment (FIG. 3B), compared to saline
Method: Animals. ICR outbred mice (Envigo RMS (Harlen), Israel) were kept in the vivarium of the Psychobiological laboratory of the Open University, […] Medical Center, Jerusalem. Mice were kept on a reversed 12-hour light/dark cycle and given ad libitum access to food and water. All experiments were performed during the dark phase under red light (7:00-19:00). All experiments were approved by the Committee for animal care and use according to the NIH guidelines. Drugs administration. […] Assessment of BDNF levels. Hippocampus tissue samples are prepared as previously described ([…]., et al., European neuropsychopharmacology, 2006. 16(5): p. 329-339). Briefly, tissues were homogenized in cold extraction Tris-buffer and then acidified with 0.1 M HCl (pH 3.0) for 15 min at room temperature. Homogenates were neutralized with 0.1 M NaOH (pH 7.6) and centrifuged in a microcentrifuge at 7,000 g for 10 min. BDNF levels in the supernatant were evaluated using sandwich ELISA as previously described (Baker-Herman, T. L., et al., Nat Neurosci, 2004. 7(1): p. 48-55).

ICR outbred mice [4] = assay: Elevated plus-maze (EPM), anxiety-like behavior in UCMS-stressed mice; assay type: in vivo; settings: 3-week treatment (FIG. 2), compared to saline
Method: as §1, with “pixel/sec. Data analysis and interpretation of results. Data was analyzed using a one-way ANOVA with Treatment as a between subject variable, performed on the time spent in the center area in the Novel Open Field and the time spent in the open arms for anxiety like behavior, and depressive like behavior was measured as the time the animal spent floating without moving. […]” for “pixel/sec.”

ICR outbred mice [5] = assay: Forced Swim Test (FST), depressive-like behavior; assay type: in vivo; settings: 3 week treatment after 30 days UCMS (FIG. 5B); in comparison to the NHT and Saline groups
Method: Animals. ICR outbred mice (Envigo RMS (Harlen), Israel) were kept in the vivarium of the Psychobiological laboratory of the Open University, […] Medical Center, Jerusalem. Mice were kept on a reversed 12-hour light/dark cycle and given ad libitum access to food and water. All experiments were performed during the dark phase under red light (7:00-19:00). All experiments were approved by the Committee for animal care and use according to the NIH guidelines. Drugs administration. […] Unpredictable chronic mild stress (UCMS). Mice were exposed to UCMS for 4 weeks at the age of 4 weeks as previously described (Malkoff, A., et al. (2008) J Neural Transm 115, 1563-1571). Forced Swim Test (FST). […] Depression like behavior was measured as the time the animal spent floated without moving, and swimming was defined as the time the animal spent engaged in active swimming or struggle movement. Effects were evaluated in independent mice groups following 1 and 3 weeks of treatment. The test was recorded by Viewer III (BIOB SERVE) software. […] Data was analyzed using a one-way ANOVA with Treatment as a between subject variable, performed on the time spent in the center area in the Novel Open Field and the time spent in the open arms for anxiety like behavior, and depressive like behavior was measured as the time the animal spent floating without moving. […]

In the case of `C/C=C1/CN2CCc3c([nH]c4ccccc34)[C@@H]2C[C@@H]1/C(=C/OC)C(=O)OC` [GM, geissoschizine methyl ether], the “isolation-induced increased aggressiveness and decreased sociality” value [1] is given as “ameliorated”.

With `CN(C)CCC[C@@]1(c2ccc(F)cc2)OCc2cc(C#N)ccc21` [escitalopram] the “time in the center of the arena, novel open field” value (ICR outbred mice [2]) was “spent significantly more time in the center of the arena”, the “anxiety-like behavior in the OFT” value (ICR outbred mice [3]) was “ineffective” and the “hippocampal BDNF levels” value (BDNF) was “increased BDNF levels”. The “anxiety-like behavior in the EPM (time spent in the open arms)” value (ICR outbred mice [4]) was “reduced anxiety-like behavior” and the “time floated-immobile in the FST (depressive-like behavior)” value (ICR outbred mice [5]) was “spent significantly less time floated-immobile”.
